Measurements: PubChem BioAssay (NCI)
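Method: 48-hour compound exposure of cells in 96-well plates, five concentrations, linear interpolation of endpoints. At the TGI there is no net growth.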

Legend:
Experiment in all cases: NCI tumour cell line growth inhibition, 48 h
SK-MEL-2 melanoma = system: SK-MEL-2 melanoma
UACC-257 melanoma = system: UACC-257 melanoma
HCC-2998 colon = system: HCC-2998 colon
HT29 colon = system: HT29 colon
T-47D breast = system: T-47D breast
NCI-H226 lung = system: NCI-H226 lung
MOLT-4 leukemia = system: MOLT-4 leukemia
LOX IMVI melanoma = system: LOX IMVI melanoma
SN12C renal = system: SN12C renal
SK-OV-3 ovarian = system: SK-OV-3 ovarian
UACC-62 melanoma = system: UACC-62 melanoma
SF-268 CNS = system: SF-268 CNS
HOP-62 NSCLC = system: HOP-62 NSCLC
SW-620 colon = system: SW-620 colon
IGROV1 ovarian = system: IGROV1 ovarian
NCI/ADR-RES ovarian = system: NCI/ADR-RES ovarian
OVCAR-5 ovarian = system: OVCAR-5 ovarian
MALME-3M melanoma = system: MALME-3M melanoma
K-562 leukemia = system: K-562 leukemia
SF-539 CNS = system: SF-539 CNS
SNB-19 CNS = system: SNB-19 CNS
NCI-H460 lung = system: NCI-H460 lung
MDA-MB-231 breast = system: MDA-MB-231 breast
HOP-92 NSCLC = system: HOP-92 NSCLC
OVCAR-8 ovarian = system: OVCAR-8 ovarian
PC-3 prostate = system: PC-3 prostate
HS 578T breast = system: HS 578T breast
A498 renal = system: A498 renal
HCT-116 colon = system: HCT-116 colon
MCF7 breast = system: MCF7 breast
M14 melanoma = system: M14 melanoma
MDA-MB-435 = system: MDA-MB-435
RXF 393 renal = system: RXF 393 renal
NCI-H23 lung = system: NCI-H23 lung
BT-549 breast = system: BT-549 breast
SNB-75 CNS = system: SNB-75 CNS
A549 NSCLC = system: A549 NSCLC
SR leukemia = system: SR leukemia
COLO 205 colon = system: COLO 205 colon
HCT-15 colon = system: HCT-15 colon
EKVX NSCLC = system: EKVX NSCLC
TK-10 renal = system: TK-10 renal
CAKI-1 renal = system: CAKI-1 renal
SK-MEL-28 melanoma = system: SK-MEL-28 melanoma
U251 CNS = system: U251 CNS
OVCAR-3 ovarian = system: OVCAR-3 ovarian
SK-MEL-5 melanoma = system: SK-MEL-5 melanoma
DU-145 prostate = system: DU-145 prostate
SF-295 CNS = system: SF-295 CNS
MDA-N = system: MDA-N
UO-31 renal = system: UO-31 renal
ACHN renal = system: ACHN renal
OVCAR-4 ovarian = system: OVCAR-4 ovarian
786-0 renal = system: 786-0 renal
RPMI-8226 leukemia = system: RPMI-8226 leukemia
CCRF-CEM leukemia = system: CCRF-CEM leukemia
KM12 colon = system: KM12 colon
NCI-H522 lung = system: NCI-H522 lung
HL-60(TB) leukemia = system: HL-60(TB) leukemia

## O=C1CC2(CCC(O)(c3cccc4ccccc34)C(C(=O)c3cccc4ccccc34)C2)C(=O)c2ccccc2N1 (centres undefined)
SK-MEL-2 melanoma
  TGI: > 100 µM
UACC-257 melanoma
  TGI: > 100 µM
HCC-2998 colon
  TGI: > 100 µM
HT29 colon
  TGI: > 100 µM
T-47D breast
  TGI: > 100 µM
NCI-H226 lung
  TGI: > 100 µM
MOLT-4 leukemia
  TGI: > 100 µM
LOX IMVI melanoma
  TGI: > 100 µM
SN12C renal
  TGI: > 100 µM
SK-OV-3 ovarian
  TGI: > 100 µM
UACC-62 melanoma
  TGI: > 100 µM
SF-268 CNS
  TGI: 91.6 µM
HOP-62 NSCLC
  TGI: 40.4 µM
SW-620 colon
  TGI: > 100 µM
IGROV1 ovarian
  TGI: > 100 µM
NCI/ADR-RES ovarian
  TGI: > 100 µM
OVCAR-5 ovarian
  TGI: > 100 µM
MALME-3M melanoma
  TGI: > 100 µM
K-562 leukemia
  TGI: > 100 µM
SF-539 CNS
  TGI: > 100 µM
SNB-19 CNS
  TGI: 47.7 µM
NCI-H460 lung
  TGI: 23.6 µM
MDA-MB-231 breast
  TGI: 68 µM
HOP-92 NSCLC
  TGI: 36.7 µM
OVCAR-8 ovarian
  TGI: > 100 µM
PC-3 prostate
  TGI: > 100 µM
HS 578T breast
  TGI: 47.9 µM
A498 renal
  TGI: > 100 µM
HCT-116 colon
  TGI: > 100 µM
MCF7 breast
  TGI: > 100 µM
M14 melanoma
  TGI: > 100 µM
MDA-MB-435
  TGI: > 100 µM
RXF 393 renal
  TGI: 36.9 µM
NCI-H23 lung
  TGI: > 100 µM
BT-549 breast
  TGI: > 100 µM
SNB-75 CNS
  TGI: 34.3 µM
A549 NSCLC
  TGI: > 100 µM
SR leukemia
  TGI: > 100 µM
COLO 205 colon
  TGI: > 100 µM
HCT-15 colon
  TGI: > 100 µM
EKVX NSCLC
  TGI: > 100 µM
TK-10 renal
  TGI: > 100 µM
CAKI-1 renal
  TGI: > 100 µM
SK-MEL-28 melanoma
  TGI: > 100 µM
U251 CNS
  TGI: > 100 µM
OVCAR-3 ovarian
  TGI: > 100 µM
SK-MEL-5 melanoma
  TGI: > 100 µM
DU-145 prostate
  TGI: > 100 µM
SF-295 CNS
  TGI: > 100 µM
MDA-N
  TGI: > 100 µM
UO-31 renal
  TGI: > 100 µM

## Cc1ccc(S(=O)(=O)NCCN(CCNS(=O)(=O)c2ccc(C)cc2)S(=O)(=O)c2ccc(C)cc2)cc1
SK-MEL-2 melanoma
  TGI: > 100 µM
UACC-257 melanoma
  TGI: > 100 µM
HCC-2998 colon
  TGI: > 100 µM
HT29 colon
  TGI: > 100 µM
T-47D breast
  TGI: > 100 µM
MOLT-4 leukemia
  TGI: > 100 µM
LOX IMVI melanoma
  TGI: > 100 µM
SN12C renal
  TGI: > 100 µM
SK-OV-3 ovarian
  TGI: > 100 µM
UACC-62 melanoma
  TGI: > 100 µM
SF-268 CNS
  TGI: > 100 µM
HOP-62 NSCLC
  TGI: > 100 µM
SW-620 colon
  TGI: > 100 µM
ACHN renal
  TGI: > 100 µM
IGROV1 ovarian
  TGI: > 100 µM
NCI/ADR-RES ovarian
  TGI: > 100 µM
OVCAR-5 ovarian
  TGI: > 100 µM
MALME-3M melanoma
  TGI: 60 µM
OVCAR-4 ovarian
  TGI: 56 µM
786-0 renal
  TGI: > 100 µM
K-562 leukemia
  TGI: > 100 µM
RPMI-8226 leukemia
  TGI: > 100 µM
SF-539 CNS
  TGI: > 100 µM
SNB-19 CNS
  TGI: > 100 µM
NCI-H460 lung
  TGI: > 100 µM
MDA-MB-231 breast
  TGI: > 100 µM
OVCAR-8 ovarian
  TGI: > 100 µM
PC-3 prostate
  TGI: > 100 µM
CCRF-CEM leukemia
  TGI: > 100 µM
HS 578T breast
  TGI: > 100 µM
A498 renal
  TGI: > 100 µM
HCT-116 colon
  TGI: > 100 µM
MCF7 breast
  TGI: > 100 µM
M14 melanoma
  TGI: > 100 µM
KM12 colon
  TGI: > 100 µM
MDA-MB-435
  TGI: > 100 µM
RXF 393 renal
  TGI: > 100 µM
NCI-H23 lung
  TGI: > 100 µM
BT-549 breast
  TGI: > 100 µM
A549 NSCLC
  TGI: > 100 µM
SR leukemia
  TGI: > 100 µM
COLO 205 colon
  TGI: > 100 µM
HCT-15 colon
  TGI: > 100 µM
EKVX NSCLC
  TGI: > 100 µM
TK-10 renal
  TGI: > 100 µM
CAKI-1 renal
  TGI: > 100 µM
SK-MEL-28 melanoma
  TGI: > 100 µM
U251 CNS
  TGI: > 100 µM
OVCAR-3 ovarian
  TGI: > 100 µM
SK-MEL-5 melanoma
  TGI: > 100 µM
DU-145 prostate
  TGI: > 100 µM
SF-295 CNS
  TGI: > 100 µM
NCI-H522 lung
  TGI: > 100 µM
MDA-N
  TGI: > 100 µM
UO-31 renal
  TGI: > 100 µM

## CCOC(=O)/C=C(/OCC)[C@@H]1C(C(=O)c2ccc(Cl)cc2)[C@H]1/C(=C\C(=O)OCC)OCC (some centres undefined)
SK-MEL-2 melanoma
  TGI: > 100 µM
UACC-257 melanoma
  TGI: > 100 µM
HT29 colon
  TGI: > 100 µM
T-47D breast
  TGI: > 100 µM
NCI-H226 lung
  TGI: > 100 µM
MOLT-4 leukemia
  TGI: > 100 µM
LOX IMVI melanoma
  TGI: > 100 µM
SN12C renal
  TGI: > 100 µM
SK-OV-3 ovarian
  TGI: > 100 µM
UACC-62 melanoma
  TGI: > 100 µM
SF-268 CNS
  TGI: > 100 µM
HOP-62 NSCLC
  TGI: > 100 µM
SW-620 colon
  TGI: > 100 µM
ACHN renal
  TGI: > 100 µM
IGROV1 ovarian
  TGI: > 100 µM
NCI/ADR-RES ovarian
  TGI: > 100 µM
OVCAR-5 ovarian
  TGI: > 100 µM
MALME-3M melanoma
  TGI: > 100 µM
OVCAR-4 ovarian
  TGI: > 100 µM
786-0 renal
  TGI: > 100 µM
K-562 leukemia
  TGI: > 25.2 µM
RPMI-8226 leukemia
  TGI: > 28.8 µM
SF-539 CNS
  TGI: > 100 µM
SNB-19 CNS
  TGI: > 100 µM
NCI-H460 lung
  TGI: > 100 µM
MDA-MB-231 breast
  TGI: > 100 µM
HOP-92 NSCLC
  TGI: > 100 µM
OVCAR-8 ovarian
  TGI: > 100 µM
PC-3 prostate
  TGI: > 100 µM
CCRF-CEM leukemia
  TGI: > 100 µM
HS 578T breast
  TGI: > 100 µM
A498 renal
  TGI: > 100 µM
HCT-116 colon
  TGI: > 100 µM
MCF7 breast
  TGI: > 100 µM
HL-60(TB) leukemia
  TGI: > 100 µM
M14 melanoma
  TGI: > 100 µM
KM12 colon
  TGI: > 100 µM
MDA-MB-435
  TGI: > 100 µM
RXF 393 renal
  TGI: > 100 µM
NCI-H23 lung
  TGI: > 100 µM
BT-549 breast
  TGI: > 100 µM
SNB-75 CNS
  TGI: > 100 µM
A549 NSCLC
  TGI: > 100 µM
SR leukemia
  TGI: > 23.6 µM
COLO 205 colon
  TGI: > 100 µM
HCT-15 colon
  TGI: > 100 µM
EKVX NSCLC
  TGI: > 100 µM
TK-10 renal
  TGI: > 100 µM
CAKI-1 renal
  TGI: > 100 µM
SK-MEL-28 melanoma
  TGI: > 100 µM
U251 CNS
  TGI: > 100 µM
OVCAR-3 ovarian
  TGI: > 100 µM
SK-MEL-5 melanoma
  TGI: > 100 µM
DU-145 prostate
  TGI: > 100 µM
SF-295 CNS
  TGI: > 100 µM
NCI-H522 lung
  TGI: > 100 µM
MDA-N
  TGI: > 100 µM
UO-31 renal
  TGI: > 100 µM
